# Source: ChEMBL document CHEMBL6096728, “Simultaneous Induction of Immunogenic Pyroptosis and PD-L1 Downregulation by One Single Photosensitizer for Synergistic Cancer Photoimmunotherapy” (J Med Chem, 2025)
# Calls of active or inactive are those of the source. No cut-off for these calls is given here.
# Legend:
# 4T1 [1] = test: (§1) Induction of intracellular ROS generation in mouse 4T1 cells assessed as increase in fluorescence intensity at 0.1 uM preincubated for 2 hrs followed by compound washout further incubated with DCFH-DA probe for 30 mins under light irradiation of 20 mW.cm/2 at 400 to 700nm measured after 10 mins in presence of tiron by flow cytometry analysis; format: functional, cell-based
# MDA-MB-231 [2] = test: Induction of cell death in human MDA-MB-231 cells assessed as increase in red fluorescence at 0.5 uM incubated for 24 hrs followed by light irradiation of 20 mW.cm/2 at 400 to 700nm for 10 mins by Calcein-AM/PI staining based analysis; format: functional
# 4T1 [3] = test: Induction of cell death in mouse 4T1 cells assessed as decrease in green fluorescence at 0.5 uM incubated for 24 hrs followed by light irradiation of 20 mW.cm/2 at 400 to 700nm for 10 mins by Calcein-AM/PI staining based analysis; format: functional
# MDA-MB-231 [4] = test: Induction of pyroptosis in human MDA-MB-231 cells assessed as upregulation of caspase-3 expression level at 0.1 to 0.5 uM preincubated with compound for 12 hrs followed by light irradiation of 20 mW.cm/2 at 400 to 700nm for 10 mins by Western blot analysis; format: functional, cell-based; conditions: dose 0.1-0.5 µM
# MDA-MB-231 [5] = test: Induction of pyroptosis in human MDA-MB-231 cells assessed as effect on GSDMD-N expression level at 0.1 to 0.5 uM preincubated with compound for 12 hrs followed by light irradiation of 20 mW.cm/2 at 400 to 700nm for 10 mins by Western blot analysis; format: functional, cell-based; conditions: dose 0.1-0.5 µM
# [6] = Phototoxicity against mouse 4T1 cells preincubated for 24 hrs followed by light irradiation of 20 mW.cm/2 at 400 to 700nm for 10 mins under hypoxia condition by CCK-8 method; format: functional, cell-based; conditions: 4T1, light or radiation study
# MDA-MB-231 [7] = test: Downregulation of PD-L1 expression level in human MDA-MB-231 cells at 0.5 uM preincubated with chloroquine followed by compound addition and measured after 24 hrs under light irradiation of 20 mW.cm/2 at 400 to 700nm for 10 mins by Western blot analysis; format: functional, cell-based
# 4T1 [8] = test: Induction of pyroptosis in mouse 4T1 cells assessed as cell swelling at 0.5 uM preincubated with compound for 4 hrs followed by light irradiation of 20 mW.cm/2 at 400 to 700nm for 10 mins by confocal fluorescence microscopy analysis; format: functional, cell-based
# [9] = Aqueous solubility of the compound by UV-vis absorption analysis; format: physicochemical; conditions: water
# MDA-MB-231 [10] = test: Induction of pyroptosis in human MDA-MB-231 cells assessed as upregulation of GSDME-N expression level at 0.1 to 0.5 uM preincubated with compound for 12 hrs followed by light irradiation of 20 mW.cm/2 at 400 to 700nm for 10 mins by Western blot analysis; format: functional, cell-based; conditions: dose 0.1-0.5 µM
# 4T1 [11] = test: Antitumor activity against mouse 4T1 cells implanted in BALB/c mouse model assessed as reduction in tumor volume at 25 mg/kg, iv measured after 14 days; format: functional, organism-based; conditions: time 14.0 day
# 4T1 [12] = test: Antitumor immunity against mouse 4T1 cells implanted in BALB/c mouse model assessed as upregulation of proportion of macrophage in lymph node at 25 mg/kg, iv measured after 14 days under light irradiation of 300 mW.cm/2 at 400 to 700nm measured after 5 mins by flow cytometry analysis; format: functional, organism-based; conditions: time 14.0 day
# 4T1 [13] = test: Downregulation of PD-L1 expression level in mouse 4T1 cells at 0.1 to 0.5 uM incubated for 24 hrs under light irradiation of 20 mW.cm/2 at 400 to 700nm for 10 mins by Western blot analysis; format: functional, cell-based; conditions: dose 0.1-0.5 µM
# MDA-MB-231 [14] = test: Induction of pyroptosis in human MDA-MB-231 cells assessed as formation of bubble-like protrusion on plasma membrane at 0.25 uM preincubated with compound for 12 hrs followed by light irradiation of 20 mW.cm/2 at 400 to 700nm for 10 mins by microscopy analysis; format: functional, cell-based
# [15] = Toxicity in BALB/c mouse assessed as effect on WBC at 25 mg/kg, iv measured after 14 days; format: organism-based; conditions: in vivo, 336 h, time 14 day
# [16] = Toxicity in BALB/c mouse assessed as effect on liver at 25 mg/kg, iv measured after 14 days under light irradiation of 300 mW.cm/2 at 400 to 700nm measured after 5 mins; format: organism-based; conditions: in vivo, 336 h, 0.7 µM, time 14 day
# [17] = Toxicity in BALB/c mouse assessed as effect on spleen at 25 mg/kg, iv measured after 14 days by H and E staining based analysis; format: organism-based; conditions: in vivo, 336 h, time 14 day
# MDA-MB-231 [18] = test: Downregulation of PD-L1 expression level in human MDA-MB-231 cells at 0.1 to 0.5 uM incubated for 24 hrs under light irradiation of 20 mW.cm/2 at 400 to 700nm for 10 mins by Western blot analysis; format: functional, cell-based; conditions: dose 0.1-0.5 µM
# Homo sapiens = organism: Homo sapiens; test: Binding affinity to PD-L1 (unknown origin) by streptavidin-biotin pull down assay
# [19] = Toxicity in BALB/c mouse assessed as change in body weight at 25 mg/kg, iv measured after 14 days under light irradiation of 300 mW.cm/2 at 400 to 700nm measured after 5 mins; format: organism-based; conditions: in vivo, 336 h, time 14 day
# [20] = Toxicity in BALB/c mouse assessed as effect on spleen at 25 mg/kg, iv measured after 14 days under light irradiation of 300 mW.cm/2 at 400 to 700nm measured after 5 mins; format: organism-based; conditions: in vivo, 336 h, 0.7 µM, time 14 day
# MDA-MB-231 [21] = test: Induction of pyroptosis in human MDA-MB-231 cells assessed as upregulation of GSDME-N expression level at 0.1 to 0.5 uM incubated with compound for 12 hrs under dark condition by Western blot analysis; format: functional, cell-based; conditions: dose 0.1-0.5 µM
# [22] = Drug uptake in mouse 4T1 cells assessed as increase in fluorescence intensity at 2.5 uM measured after 10 mins by flow cytometry analysis; format: ADME, cell-based; conditions: 4t1, 10 min
# [23] = Toxicity in BALB/c mouse assessed as effect on lung at 25 mg/kg, iv measured after 14 days by H and E staining based analysis; format: organism-based; conditions: in vivo, 336 h, time 14 day
# MDA-MB-231 [24] = test: Photocytotoxicity in human MDA-MB-231 cells assessed as reduction in 3D multicellular spheroids diameter at 0.5 to 1 uM incubated for 24 hrs under light irradiation of 50 mW.cm/2 at 400 to 700nm measured after 10 mins in normoxia condition; format: functional, cell-based; conditions: dose 0.5-1 µM
# 4T1 [25] = test: as §1, with “NaN3” for “tiron”; format: functional, cell-based
# 4T1 [26] = test: Antitumor immunity against mouse 4T1 cells implanted in BALB/c mouse model assessed as fold increase in CD4+ T cells in spleen at 25 mg/kg, iv measured after 14 days under light irradiation of 300 mW.cm/2 at 400 to 700nm measured after 5 mins […]; format: functional; conditions: time 14 day
# [27] = Toxicity in BALB/c mouse assessed as change in body weight at 25 mg/kg, iv measured after 14 days; format: organism-based; conditions: in vivo, 336 h, time 14 day
# MDA-MB-468 = test: Downregulation of PD-L1 expression level in human MDA-MB-468 cells at 0.1 to 0.5 uM incubated for 24 hrs under light irradiation of 20 mW.cm/2 at 400 to 700nm for 10 mins by Western blot analysis; format: functional, cell-based; conditions: dose 0.1-0.5 µM
smiles,measurement,setting,value
O=c1cc2sc3cc(N4CCNCC4)ccc3nc-2c2ccccc12,Activity,4T1 [1],inactive
same,Activity,MDA-MB-231 [2],Active
same,Activity,4T1 [3],Active
same,Activity,MDA-MB-231 [4],Active
same,Activity,MDA-MB-231 [5],inactive
same,IC50,[6],693 nM
same,Activity,MDA-MB-231 [7],inactive
same,Activity,4T1 [8],Active
same,solubility,[9],> 10 mM
same,Activity,MDA-MB-231 [10],Active
same,Activity,4T1 [11],Active
same,Activity,4T1 [12],Active
same,Activity,4T1 [13],Active
same,Activity,MDA-MB-231 [14],Active
same,Activity,[15],Non-toxic
same,Activity,[16],Non-toxic
same,Activity,[17],Non-toxic
same,Activity,MDA-MB-231 [18],Active
same,Activity,Homo sapiens,Not active; Compound Rarely Binds To Pd-L1
same,Activity,[19],Non-toxic
same,Activity,[20],Non-toxic
same,Activity,MDA-MB-231 [21],Active; Compound Showed Negligible Changes
same,Drug uptake,[22],Active
same,Activity,[23],Non-toxic
same,Activity,MDA-MB-231 [24],Active
same,Activity,4T1 [25],inactive
same,fold change (FC),4T1 [26],6.8
same,Activity,[27],Non-toxic
same,Activity,MDA-MB-468,Active
